Experimental data published in patent US20250009734A1, “METHODS OF INHIBITING FOXO1 FOR TREATMENT OF LYMPHATIC DISORDERS” (UNIVERSITY OF SOUTH FLORIDA, priority 2023, published 2025).

How the values were obtained:
[1] = system: human dermal lymphatic endothelial cells (hdLECs); assay: qRT-PCR of valve and flow responsive gene mRNA in cultured hdLECs; format: cell-based
Experimental: FIG. 1. AS1842856 (AS) has a time and concentration dependent effect on valve genes expression. Human dermal lymphatic endothelial cells (hdLECs) were cultured under static conditions and treated for the indicated time (24, 48, and 72 hours) and concentrations from left to right: DMSO 1 μM, AS 0.1 μM, AS 0.5 μM, and AS 1 μM. Afterwards, mRNA of indicated genes was extracted, reverse transcribe and quantified by qRT-PCR analysis. All values are mean±SEM. n=3 experiment repeats; ns=not significant; *p≤0.05, **p≤0.01.
To investigate this, hdLECs were treated with three distinct concentrations of AS1842856-0.1 μM, 0.5 μM, and 1 μM for 24 hours (hrs), 48 hrs, and 72 hrs. DMSO was used as the vehicle control. The medium was changed every day with freshly made drug. Thereafter, the expression levels of valve genes and flow responsive genes, including FOXC2, GATA2, PROX1, KLF4, ITGA9, GJA4, NOS3, and CTNNB1, were determined using quantitative RT-qPCR. […] Deletion of any of these three genes leads to the absence of lymphatic valve formation during embryonic development (Petrova et al., 2004, Kazenwadel et al., 2015, Cha et al., 2016). […] However, the expression of CTNNB1 was not altered.
Human dermal lymphatic endothelial cells (hdLECs) purchased from Promocell (C-12216) were cultured in EBM-V2 (PromoCell, C-22121) media on fibronectin (20 μl/well) coated 6-well plates. hdLECs were treated with 4 different conditions: DMSO (1 μM), AS1842856 (EMD Millipore Corporation) 0.1 μM, 0.5 μM and 1 μM for 3 different time points: 24, 48, and 72 hours for qRT-PCR. For western blot, hdLECs were treated with 0.5 μM AS1842856 for 48 hours.
The RNeasy Plus Mini Kit (Qiagen) was used to isolate total RNA from hdLECs per the manufacturers' instructions. cDNA synthesis was performed using the AdvantageR RT-for-PCR kit (Takara) according to the manufacturer's guidelines. qPCR was performed in a QuantStudio 6 realtime PCR system (Applied Biosystems) with TaqmanR probes (Applied Biosystems, Thermofisher) and the Cq value of each gene was normalized to the that of GAPDH.

[2] = target: FOXO3 (Homo sapiens, UniProt O43524); settings: Nagashima et al., 2010; cited from earlier work
FOXO3, sequence (O43524 whole entry, species assumed): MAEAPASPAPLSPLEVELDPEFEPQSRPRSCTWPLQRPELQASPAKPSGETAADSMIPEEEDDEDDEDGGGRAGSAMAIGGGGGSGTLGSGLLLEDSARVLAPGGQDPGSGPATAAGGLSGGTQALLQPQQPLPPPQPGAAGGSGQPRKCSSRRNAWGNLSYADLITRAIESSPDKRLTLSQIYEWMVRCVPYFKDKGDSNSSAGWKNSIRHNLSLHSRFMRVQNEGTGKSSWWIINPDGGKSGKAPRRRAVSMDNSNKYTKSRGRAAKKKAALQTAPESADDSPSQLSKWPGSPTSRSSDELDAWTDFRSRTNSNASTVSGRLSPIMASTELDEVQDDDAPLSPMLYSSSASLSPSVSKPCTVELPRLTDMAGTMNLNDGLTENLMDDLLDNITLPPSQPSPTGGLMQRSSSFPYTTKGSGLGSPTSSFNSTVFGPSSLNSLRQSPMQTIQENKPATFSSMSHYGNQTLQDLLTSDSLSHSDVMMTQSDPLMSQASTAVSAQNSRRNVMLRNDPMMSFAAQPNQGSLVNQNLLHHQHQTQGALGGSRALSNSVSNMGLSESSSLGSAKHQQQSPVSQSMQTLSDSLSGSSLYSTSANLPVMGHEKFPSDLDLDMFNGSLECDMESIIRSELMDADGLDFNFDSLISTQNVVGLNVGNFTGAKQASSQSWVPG

CCn1cc(C(=O)O)c(=O)c2c(N)c(F)c(NC3CCCCC3)cc21 [AS1842856]
increased expression of FOXC2, GATA2, KLF4, ITGA9, GJA4, NOS3, and PROX1 (comparison of treatment conditions) ([1]; 0.5 μM for 48 hrs): best results | GATA2 mRNA expression level ([1]; 24 hrs or 72 hrs AS treatment vs DMSO): not with 24 hrs or 72 hrs treatment | CTNNB1 mRNA expression ([1]; 48 hrs AS treatment vs DMSO): not altered | FOXC2 mRNA expression level ([1]; 48 hrs AS treatment vs DMSO): significantly upregulated | GATA2 mRNA expression level ([1]; 48 hrs AS treatment vs DMSO): significantly upregulated | GJA4 mRNA expression level ([1]; 48 hrs AS treatment vs DMSO): significantly higher | ITGA9 mRNA expression level ([1]; 48 hrs AS treatment vs DMSO): significantly higher | KLF4 mRNA expression level ([1]; 48 hrs AS treatment vs DMSO): significantly increased | NOS3 mRNA expression ([1]; 48 hrs AS treatment vs DMSO): significantly increased | PROX1 mRNA expression level ([1]; 48 hrs AS treatment vs DMSO): significantly increased | FOXC2 mRNA expression level ([1]; 48 hrs, 0.1 μM): trend of increase | GATA2 mRNA expression level ([1]; 48 hrs, 0.1 μM): trend of increase | GJA4 mRNA expression level ([1]; 48 hrs, 0.1 μM and 0.5 μM): upregulated | ITGA9 mRNA expression level ([1]; 48 hrs, 0.1 μM and 0.5 μM): upregulated | NOS3 mRNA expression level ([1]; 48 hrs, 0.1 μM and 0.5 μM): upregulated | PROX1 mRNA expression level ([1]; 48 hrs, 0.1 μM and 0.5 μM): upregulated | FOXC2 mRNA expression ([1]; 48 hrs, 0.5 μM and 1 μM): significant increase | GATA2 mRNA expression ([1]; 48 hrs, 0.5 μM and 1 μM): significant increase | GJA4 mRNA expression level ([1]; 48 hrs, 1 μM): not under 1 μM | ITGA9 mRNA expression level ([1]; 48 hrs, 1 μM): not under 1 μM | NOS3 mRNA expression level ([1]; 48 hrs, 1 μM): not under 1 μM | PROX1 mRNA expression level ([1]; 48 hrs, 1 μM): not under 1 μM | CTNNB1 mRNA expression ([1]; 48 hrs, 0.1, 0.5 and 1 μM): None of the concentrations induced significant upregulation | FOXO1 mRNA expression ([1]; 48 hrs, 0.1, 0.5 and 1 μM): None of the concentrations induced significant upregulation | KLF4 mRNA expression ([1]; 48 hrs, all three concentrations (0.1, 0.5, 1 μM)): increased | FOXO1 mRNA expression level ([1]; AS treatment vs DMSO): not altered | effect on inhibiting the activity of FOXO3 [2]: minimal effect
